Results reported in the NIST ThermoML archive (doi:10.1021/je100042c).

Details: 101.33 kPa, Liquid; for viscosity: Concentric cylinders viscometry; for mass density: Vibrating tube method

CCCCCCCC/C=C\CCCCCCCC(=O)OCC [ethyl (Z)-9-octadeceneoate]
Details	mass density [kg/m3]	viscosity [mPa·s]
278.15 K	880.5	10.39
283.15 K	876.9	8.839
288.15 K	873.2	7.595
293.15 K	869.5	6.591
298.15 K	865.9	5.769
303.15 K	862.2	5.092
308.15 K	858.5	4.525
313.15 K	854.9	4.048
318.15 K	851.3	3.641
323.15 K	847.6	3.292
328.15 K	844	2.99
333.15 K	840.4	2.729
338.15 K	836.8	2.502
343.15 K	833.1	2.301
348.15 K	829.5	2.124
353.15 K	825.9	1.967
358.15 K	822.3	1.827
363.15 K	818.7	1.702

CCCCCCCCCC(=O)OCC [ethyl decanoate]
Details	mass density [kg/m3]	viscosity [mPa·s]
283.15 K	872.5	2.896
288.15 K	868.4	2.588
293.15 K	864.3	2.326
298.15 K	860.2	2.103
303.15 K	856.2	1.911
308.15 K	852.1	1.745
313.15 K	848	1.6
318.15 K	843.9	1.473
323.15 K	839.8	1.36
328.15 K	835.7	1.259
333.15 K	831.6	1.169
338.15 K	827.5	1.089
343.15 K	823.4	1.017
348.15 K	819.2	0.9516
353.15 K	815.1	0.8929

CCCCCCCCCCCC(=O)OCC [ethyl dodecanoate]
Details	mass density [kg/m3]	viscosity [mPa·s]
283.15 K	870.3	4.335
288.15 K	866.4	3.813
293.15 K	862.4	3.38
298.15 K	858.5	3.015
303.15 K	854.6	2.707
308.15 K	850.7	2.446
313.15 K	846.8	2.22
318.15 K	842.9	2.024
323.15 K	839	1.853
328.15 K	835.1	1.704
333.15 K	831.1	1.57
338.15 K	827.2	1.453
343.15 K	823.3	1.349
348.15 K	819.4	1.254
353.15 K	815.4	1.171

CCCCCCCCCCCCCCCC(=O)OCC [ethyl hexadecanoate]
Details	mass density [kg/m3]	viscosity [mPa·s]
303.15 K	852.6	5.011
308.15 K	848.9	4.44
313.15 K	845.2	3.956
318.15 K	841.5	3.547
323.15 K	837.9	3.197
328.15 K	834.2	2.897
333.15 K	830.5	2.637
338.15 K	826.9	2.412
343.15 K	823.2	2.214
348.15 K	819.5	2.039
353.15 K	815.9	1.884
358.15 K	812.2	1.746
363.15 K	808.6	1.623

CCCCCCCCCCCCCCCCCC(=O)OCC [ethyl octadecanoate]
Details	mass density [kg/m3]	viscosity [mPa·s]
313.15 K	844.8	5.082
318.15 K	841.1	4.529
323.15 K	837.5	4.057
328.15 K	833.9	3.654
333.15 K	830.3	3.307
338.15 K	826.7	3.007
343.15 K	823.1	2.744
348.15 K	819.5	2.515
353.15 K	815.9	2.313
358.15 K	812.3	2.135
363.15 K	808.7	1.978

CCCCCCCCCCCCCC(=O)OCC [ethyl tetradecanoate]
Details	mass density [kg/m3]	viscosity [mPa·s]
283.15 K	868.7	6.26
288.15 K	864.8	5.43
293.15 K	861	4.749
298.15 K	857.2	4.188
303.15 K	853.4	3.721
308.15 K	849.6	3.328
313.15 K	845.8	2.993
318.15 K	842	2.706
323.15 K	838.2	2.458
328.15 K	834.5	2.242
333.15 K	830.7	2.055
338.15 K	826.9	1.889
343.15 K	823.1	1.743
348.15 K	819.4	1.614
353.15 K	815.6	1.499

CCCCC/C=C\C/C=C\CCCCCCCC(=O)OC [methyl (Z,Z)-9,12-octadecadienate]
Details	mass density [kg/m3]	viscosity [mPa·s]
278.15 K	897.2	7.466
283.15 K	893.5	6.466
288.15 K	889.9	5.655
293.15 K	886.2	4.982
298.15 K	882.5	4.428
303.15 K	878.8	3.961
308.15 K	875.2	3.567
313.15 K	871.5	3.227
318.15 K	867.9	2.936
323.15 K	864.3	2.682
328.15 K	860.7	2.461
333.15 K	857	2.266
338.15 K	853.4	2.093
343.15 K	849.8	1.94
348.15 K	846.1	1.804
353.15 K	842.5	1.682
358.15 K	838.7	–
363.15 K	835.1	–

CCCCCCCC/C=C\CCCCCCCC(=O)OC [methyl cis-9-octadecenoate]
Details	mass density [kg/m3]	viscosity [mPa·s]
283.15 K	881.4	8.699
288.15 K	877.7	7.452
293.15 K	874.1	6.45
298.15 K	870.4	5.634
303.15 K	866.8	4.961
308.15 K	863.1	4.401
313.15 K	859.5	3.93
318.15 K	855.9	3.531
323.15 K	852.3	3.189
328.15 K	848.7	2.894
333.15 K	845.1	2.638
338.15 K	841.5	2.416
343.15 K	837.9	2.222
348.15 K	834.3	2.05
353.15 K	830.7	1.897

CCCCCCCCCC(=O)OC [methyl decanoate]
Details	mass density [kg/m3]	viscosity [mPa·s]
278.15 K	884.7	2.989
283.15 K	880.6	2.654
288.15 K	876.4	2.373
293.15 K	872.3	2.136
298.15 K	868.2	1.933
303.15 K	864.1	1.76
308.15 K	860	1.609
313.15 K	856	1.477
318.15 K	851.9	1.361
323.15 K	847.8	1.259
328.15 K	843.6	1.167
333.15 K	839.5	1.086
338.15 K	835.3	1.013
343.15 K	831.2	0.9477
348.15 K	827	0.8886
353.15 K	822.9	0.8342
358.15 K	818.7	0.786
363.15 K	814.5	0.7421

CCCCCCCCCCCC(=O)OC [methyl dodecanoate]
Details	mass density [kg/m3]	viscosity [mPa·s]
283.15 K	877.7	4.068
288.15 K	873.7	3.577
293.15 K	869.8	3.167
298.15 K	865.8	2.824
303.15 K	861.8	2.536
308.15 K	857.9	2.289
313.15 K	853.9	2.078
318.15 K	850	1.894
323.15 K	846.1	1.735
328.15 K	842.1	1.595
333.15 K	838.1	1.471
338.15 K	834.2	1.362
343.15 K	830.2	1.265
348.15 K	826.2	1.178
353.15 K	822.3	1.1

CCCCCCCCCCCCCCCC(=O)OC [methyl hexadecanoate]
Details	mass density [kg/m3]	viscosity [mPa·s]
308.15 K	854.5	4.212
313.15 K	850.8	3.755
318.15 K	847	3.368
323.15 K	843.3	3.038
328.15 K	839.6	2.754
333.15 K	835.8	2.508
338.15 K	832.1	2.295
343.15 K	828.4	2.107
348.15 K	824.7	1.942
353.15 K	821	1.796
358.15 K	817.3	1.666
363.15 K	813.6	1.55

CCCCCCCCCCCCCCCCCC(=O)OC [methyl octadecanoate]
Details	mass density [kg/m3]	viscosity [mPa·s]
313.15 K	849.8	4.986
318.15 K	846.1	4.435
323.15 K	842.5	3.965
328.15 K	838.9	3.568
333.15 K	835.3	3.225
338.15 K	831.7	2.929
343.15 K	828.1	2.672
348.15 K	824.5	2.448
353.15 K	820.9	2.25
358.15 K	817.3	2.076
363.15 K	813.7	1.922

CCCCCCCC(=O)OC [methyl octanoate]
Details	mass density [kg/m3]	viscosity [mPa·s]
283.15 K	885.9	1.71
288.15 K	881.5	1.559
293.15 K	877.1	1.427
298.15 K	872.8	1.313
303.15 K	868.4	1.212
308.15 K	864	1.123
313.15 K	859.6	1.044
318.15 K	855.2	0.9733
323.15 K	850.8	0.9093
328.15 K	846.4	0.8518
333.15 K	841.9	0.7998
338.15 K	837.5	0.7528
343.15 K	833	0.7101
348.15 K	828.5	0.6713
353.15 K	824	0.6359

CCCCCCCCCCCCCC(=O)OC [methyl tetradecanoate]
Details	mass density [kg/m3]	viscosity [mPa·s]
298.15 K	863.7	3.982
303.15 K	859.9	3.543
308.15 K	856	3.165
313.15 K	852.2	2.845
318.15 K	848.4	2.571
323.15 K	844.6	2.334
328.15 K	840.8	2.129
333.15 K	837	1.95
338.15 K	833.1	1.793
343.15 K	829.3	1.655
348.15 K	825.5	1.532
353.15 K	821.8	1.423
